Five compounds from patent US20230165843A1, “USE AND PHARMACEUTICAL COMPOSITION OF PHENYLISOXAZOLYL METHYLENE-NAPHTHALENE-ETHER DERIVATIVES” (priority 2019, published 2023) can be followed below.

The subject of one assay is HBV (D type). The assay can be described thus: PHH (Primary Human Hepatocyte) Assay, HBV infection. The class given is cell-based, hepatitis B virus. The conditions noted are these: PHH cells infected with HBV (D type); for inhibition of HBV RNA: culture supernatant day 9, RT-qPCR, FIG. 3; for inhibition of extracellular HBV DNA: culture supernatant day 9, qPCR, FIG. 1; for inhibition of HBsAg: culture supernatant day 9, FIG. 2. How it is done:
PHH (Primary Human Hepatocyte) Assay: Cell Line and Compound Treatment
The PHH cells were seeded into the 48-well plates at the density of 1.32×10^5 cells/well. The PHH cells seeding date was defined as day 0. The PHH cells were infected with HBV (D type) at 1600 GE/cell on day 1. The culture medium containing compounds was refreshed on day 2, 4, 6 and day 8. On day 9, the cells were treated with CCK8 and culture supernatant and cells were collected.
FXR Compounds were tested at 10000.0, 3000.0, 1000.0, 300.0, 100.0, 30.0, and 10.0 nM, and ETV was tested at 0.2000, 0.0667, 0.0222, 0.0074, 0.0025, 0.0008, and 0.0003 nM. 1% DMSO was used as non-treatment control. The supernatants on day 9 were collected, and analyzed for HBV DNA by qPCR, HBV RNA by RT-qPCR, HBsAg and HBeA by ELISA.
DNA in the culture supernatants was isolated with the QIAamp 96 DNA Blood Kit according to the manual and quantified by the qPCR. 80 μl of the culture supernatants sample was used to extract DNA. The elution volume was 120 μl. The PCR mix (8 μl/well) and the samples (2 μl/well) or plasmid standards (2 μl/well) were added to the 384-well optical reaction plate and performed using the following program: 95C for 10 min, then cycling at 95° C. 15 sec, 60° C. 1 min for 40 cycles.
RNA in the culture supernatants was isolated with the PureLink™ Pro 96 Viral RNA Kit according to the manual. 35 μl of the culture supernatants sample was used to extract RNA. The elution volume was 100 μl. HBV RNA was quantified by RT-qPCR.
For HepG2-NTCP Assay, HBsAg and HBeAg in the samples harvested on day 9 were measured by the HBsAg ELISA kit (Autobio) and HBeAg ELISA kit (Autobio) according to the manual. For PHH assay, Chemiluminescence Apparatu was used to measure HBsAg according to the Antu HBsAg ELISA kit manual.
% HBV DNA inhibition=(1−HBV DNA copy number of test sample/avg. HBV DNA copy number of 1% DMSO control)×100%
% HBV RNA inhibition=(1−HBV RNA copy number of test sample/avg. HBV RNA copy number of 1% DMSO control)×100%
% HBsAg inhibition=(1−HBsAg quantity of sample/HBsAg quantity of 1% DMSO control)×100%
The EC50 and CC50 values were determined by dose-response curves fitted by GraphPad Prism using “log (agonist) vs. response-variable slope”.

In the next assay the test system is HBV (rAAV8-1.3HBV). The assay can be described thus: AAV/HBV Mouse Model. The class given is in vivo, mice. An excerpt: AAV/HBV Mouse Model and Compound Treatment
Male C57BL′6 mice of 5-week old (obtained from Shanghai Jihui Laboratory Animal Care Co., Ltd) were given rAAV8-1.3HBV (1×1011 v.g.) via tail vein to establish infection on Day −28. After 14 days, 21 days, and on Day −4, blood was drawn from submandibular vein to determine the level of HBV DNA, and HBsAg. On Day-4, 40 mice were chosen based on HBV DNA, and HBsAg results, and were randomly assigned to 5 groups. After the mice were infected with HBV virus for 28 days, treatment was given orally once per day, for 4 weeks. Group 1 was given vehicle (0.5% CMC-Na, 10 ml/kg), Group 2 was given positive control ETV (0.1 mg/kg). Groups 3, 4, and 5 were given Compound 33 at 10 mg/kg, 30 mg/kg, and 60 mg/kg, respectively. Blood was drawn from submandibular vein every week to determine the concentration of HBV DNA, HBV RNA, and HBsAg. On Day 28, blood was taken from the heart.
HBV DNA determination by qPCR. DNA in the mice plasma was isolated with the QIAamp 96 DNA Blood Kit according to the manual and quantified by the qPCR, and performed using the following program: 95C for 10 min, then cycling at […] 15 sec, 60° C. 1 min for 40 cycles.
HBV RNA determination by qPCR. RNA in the mice plasma was isolated with the PureLink™ Pro 96 Viral RNA/DNA Kit according to the manual. 20 μl of the plasma was used to extract RNA
HBsAg determination by ELISA. HBsAg in the samples was measured by the HBsAg ELISA kit (Autobio) according to the manual. Briefly, after the plasma was diluted 1200× in a coated plate, and incubate with the enzyme conjugated ([…], 60 min), and the plate was washed 5 time. Substrate was added, and it was kept from light at room temperature for 10 min and intensity was measured by a plated reader.
Average±Standard deviation was calculated for each group, and analyzed with Student's t-test.

Setting [1] is: positive control 0.1 mg/kg orally once per day, 4 weeks.

`Cc1nc(Oc2cccc3cc(OCc4c(-c5c(Cl)cccc5Cl)noc4C4CC4)ccc23)ccc1C(=O)O` [Compound 27, 6-((6-((5-cyclopropyl-3-(2,6-dichlorophenyl)isoxazol-4-yl)methoxy)naphthalen-1-yl)oxy)-2-methylnicotinic acid]: in the assay with HBV (D type), the “inhibition of HBV RNA” value is reported as “dose-dependent inhibition”, the “inhibition of extracellular HBV DNA” value was “dose-dependent inhibition” and the “inhibition of HBsAg” value is on record as “dose-dependent inhibition”.
For `C=C1[C@H](CO)[C@@H](O)C[C@@H]1n1cnc2c(=O)[nH]c(N)nc21` [ETV, entecavir, reference compound], in the assay with HBV (rAAV8-1.3HBV) (setting [1]), the “effect on HBV RNA as compared to the vehicle group” value is given as “no significant effect” and the “effect on HBsAg as compared to the vehicle group” value was “no significant effect”. Also, in the assay with HBV (D type), the “inhibition of HBV RNA” value is “no significant inhibition”, the “inhibition of extracellular HBV DNA” value was “significant inhibition” and the “inhibition of HBsAg” value was “no significant inhibition”.
In the case of `O=C(O)c1ccc(Oc2cccc3cc(OCc4c(-c5c(Cl)cccc5Cl)noc4C4CC4)ccc23)nc1` [Compound 22, 6-((6-((5-cyclopropyl-3-(2,6-dichlorophenyl)isoxazol-4-yl)methoxy)naphthalen-1-yl)oxy)nicotinic acid], in the assay with HBV (D type), the “inhibition of HBV RNA” value is “dose-dependent inhibition”, the “inhibition of extracellular HBV DNA” value was “dose-dependent inhibition” and the “inhibition of HBsAg” value is on record as “dose-dependent inhibition”.
On to `O=C(O)c1ccc(Oc2ccc3cc(OCc4c(-c5c(Cl)cccc5Cl)noc4C4CC4)ccc3c2)nc1` [Compound 1, 6-((6-((5-cyclopropyl-3-(2,6-dichlorophenyl)isoxazol-4-yl)methoxy)naphthalen-2-yl)oxy)nicotinic acid], for which, in the assay on HBV (D type), the “inhibition of HBV RNA” value was “dose-dependent inhibition”, the “inhibition of extracellular HBV DNA” value is given as “dose-dependent inhibition” and the “inhibition of HBsAg” value is given as “dose-dependent inhibition”.
In the case of `O=C([O-])c1ccc(Oc2ccc3cc(OCc4c(-c5c(Cl)cccc5Cl)noc4C4CC4)ccc3c2)nc1.[Na+]` [Compound 33, Sodium 6-((6-((5-cyclopropyl-3-(2,6-dichlorophenyl)isoxazol-4-yl)methoxy)naphthalen-2-yl)oxy)nicotinate], the “HBsAg, lowered as compared to the vehicle group” value in the assay on HBV (rAAV8-1.3HBV) (high dose group 60 mg/kg orally once per day, 28 days, FIG. 6) was determined as 0.38 log 10 [IU/ml]. In addition, the “HBV RNA, lower than the vehicle group” value in the assay with HBV (rAAV8-1.3HBV) (high dose group 60 mg/kg orally once per day, 28 days, significantly lower than vehicle (p<0.01), FIG. 5) is 0.60-0.66 log 10[RNA copy/uL]. In addition, the “HBV DNA, lower than the vehicle group” value in the assay on HBV (rAAV8-1.3HBV) (high dose group 60 mg/kg orally once per day, 28 days, significantly lower than vehicle (p<0.05), FIG. 4) is 0.77-1.12 log 10[DNA copy/uL].
